Results published in ChEMBL document CHEMBL3044876, “The sodium channel gene in Tetranychus cinnabarinus (Boisduval): identification and expression analysis of a mutation associated with pyrethroid resistance” (2011).
In brackets after ≈: the same amount, converted by molar mass.

Columns and labels:
Format in all cases: functional
Tetranychus cinnabarinus [1] = assay: Synergism ratio, LC50 for insecticidal activity against compound resistant Tetranychus cinnabarinus (carmine spider mite) to LC50 for insecticidal activity against compound resistant Tetranychus cinnabarinus in presence of piperonyl butoxide (PBO), diethyl maleate (DEM) and triphenyl phosphate (TPP)
Tetranychus cinnabarinus [2] = assay: Resistance ratio, LC50 for insecticidal activity against compound resistant Tetranychus cinnabarinus (carmine spider mite) in presence of piperonyl butoxide (PBO), diethyl maleate (DEM) and triphenyl phosphate (TPP) to LC50 for insecticidal activity against compound susceptible Tetranychus cinnabarinus in presence of piperonyl butoxide (PBO), diethyl maleate (DEM) and triphenyl phosphate (TPP)
Tetranychus cinnabarinus [3] = assay: Insecticidal activity against compound resistant Tetranychus cinnabarinus (carmine spider mite) in presence of piperonyl butoxide (PBO), diethyl maleate (DEM) and triphenyl phosphate (TPP)
Tetranychus cinnabarinus [4] = assay: Insecticidal activity against compound susceptible Tetranychus cinnabarinus (carmine spider mite)

With `CC1(C)C(C(=O)OC(C#N)c2cccc(Oc3ccccc3)c2)C1(C)C` (centres undefined) [FENPROPATHRIN] the Ratio (Tetranychus cinnabarinus [1]) was 1, the Ratio (Tetranychus cinnabarinus [2]) was 98.5 and the LC50 (Tetranychus cinnabarinus [3]) was 70.3 mg/mL. The LC50 (Tetranychus cinnabarinus [4]) was 0.714 mg/mL (≈ 2040 µM).
